# Reference: patent US8022206B2 (OSI Pharmaceuticals, LLC, priority 2008, dated 2011)
# How the values were obtained:
# [1] = target: RON (human) (Homo sapiens, UniProt Q04912); test: RON (human) AlphaScreen kinase assay, Km of ATP; type: biochemical; conditions: AlphaScreen, Km of ATP; read-out: RON biochemical IC50
# How it was run: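 Detection used PT66 AlphaScreen beads added in Tris pH 7.5/NaCl/EDTA/BSA buffer, read after 1 h incubation. Vehicle-only DMSO wells served as controls.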
# [2] = target: MET (human) (Homo sapiens, UniProt P08581); test: MET (human) AlphaScreen kinase assay, Km of ATP; type: biochemical; conditions: AlphaScreen, Km of ATP; read-out: Met biochemical IC50
# Sequence of MET (human) (P08581 25-1390): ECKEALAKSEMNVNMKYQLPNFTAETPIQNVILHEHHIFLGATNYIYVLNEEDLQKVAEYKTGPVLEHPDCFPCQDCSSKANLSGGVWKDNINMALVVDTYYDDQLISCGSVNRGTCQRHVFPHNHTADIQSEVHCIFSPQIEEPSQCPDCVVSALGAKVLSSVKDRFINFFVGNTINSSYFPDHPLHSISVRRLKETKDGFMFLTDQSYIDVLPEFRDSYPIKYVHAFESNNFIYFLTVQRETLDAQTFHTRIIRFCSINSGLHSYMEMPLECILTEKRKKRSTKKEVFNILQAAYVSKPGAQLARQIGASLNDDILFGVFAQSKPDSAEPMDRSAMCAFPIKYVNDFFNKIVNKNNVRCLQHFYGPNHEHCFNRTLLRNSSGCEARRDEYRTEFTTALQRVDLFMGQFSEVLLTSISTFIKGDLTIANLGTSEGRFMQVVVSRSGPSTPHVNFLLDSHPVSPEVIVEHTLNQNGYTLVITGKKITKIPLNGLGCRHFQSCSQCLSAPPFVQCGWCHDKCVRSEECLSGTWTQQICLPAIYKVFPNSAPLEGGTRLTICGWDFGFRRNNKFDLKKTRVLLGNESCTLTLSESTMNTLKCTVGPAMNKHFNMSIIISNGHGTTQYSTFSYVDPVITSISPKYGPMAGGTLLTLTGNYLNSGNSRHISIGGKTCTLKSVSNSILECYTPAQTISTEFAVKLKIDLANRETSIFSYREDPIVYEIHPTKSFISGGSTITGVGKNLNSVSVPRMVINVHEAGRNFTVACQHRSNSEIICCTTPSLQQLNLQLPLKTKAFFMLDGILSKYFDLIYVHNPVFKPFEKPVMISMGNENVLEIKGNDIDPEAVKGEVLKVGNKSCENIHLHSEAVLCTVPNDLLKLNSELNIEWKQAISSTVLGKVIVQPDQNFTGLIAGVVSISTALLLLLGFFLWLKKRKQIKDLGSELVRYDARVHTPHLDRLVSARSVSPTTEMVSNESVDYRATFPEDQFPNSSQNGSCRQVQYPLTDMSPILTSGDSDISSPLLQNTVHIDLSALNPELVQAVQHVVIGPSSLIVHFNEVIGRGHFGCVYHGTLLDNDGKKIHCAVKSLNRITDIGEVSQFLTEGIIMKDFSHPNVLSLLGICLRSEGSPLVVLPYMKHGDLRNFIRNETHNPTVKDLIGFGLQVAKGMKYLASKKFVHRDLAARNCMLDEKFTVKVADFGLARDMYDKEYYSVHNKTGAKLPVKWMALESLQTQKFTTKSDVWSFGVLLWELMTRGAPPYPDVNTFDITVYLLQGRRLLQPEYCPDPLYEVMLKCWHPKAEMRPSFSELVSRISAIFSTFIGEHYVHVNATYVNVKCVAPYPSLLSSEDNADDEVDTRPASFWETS
# How it was run: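 Human MET at lot-optimised concentration in 50 mM Tris pH 7.4 buffer with 1 mM DTT, compound at 1% DMSO final; enzyme starts the reaction, 60 min at RT.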
# Sequence of RON (human) (Q04912 25-1400): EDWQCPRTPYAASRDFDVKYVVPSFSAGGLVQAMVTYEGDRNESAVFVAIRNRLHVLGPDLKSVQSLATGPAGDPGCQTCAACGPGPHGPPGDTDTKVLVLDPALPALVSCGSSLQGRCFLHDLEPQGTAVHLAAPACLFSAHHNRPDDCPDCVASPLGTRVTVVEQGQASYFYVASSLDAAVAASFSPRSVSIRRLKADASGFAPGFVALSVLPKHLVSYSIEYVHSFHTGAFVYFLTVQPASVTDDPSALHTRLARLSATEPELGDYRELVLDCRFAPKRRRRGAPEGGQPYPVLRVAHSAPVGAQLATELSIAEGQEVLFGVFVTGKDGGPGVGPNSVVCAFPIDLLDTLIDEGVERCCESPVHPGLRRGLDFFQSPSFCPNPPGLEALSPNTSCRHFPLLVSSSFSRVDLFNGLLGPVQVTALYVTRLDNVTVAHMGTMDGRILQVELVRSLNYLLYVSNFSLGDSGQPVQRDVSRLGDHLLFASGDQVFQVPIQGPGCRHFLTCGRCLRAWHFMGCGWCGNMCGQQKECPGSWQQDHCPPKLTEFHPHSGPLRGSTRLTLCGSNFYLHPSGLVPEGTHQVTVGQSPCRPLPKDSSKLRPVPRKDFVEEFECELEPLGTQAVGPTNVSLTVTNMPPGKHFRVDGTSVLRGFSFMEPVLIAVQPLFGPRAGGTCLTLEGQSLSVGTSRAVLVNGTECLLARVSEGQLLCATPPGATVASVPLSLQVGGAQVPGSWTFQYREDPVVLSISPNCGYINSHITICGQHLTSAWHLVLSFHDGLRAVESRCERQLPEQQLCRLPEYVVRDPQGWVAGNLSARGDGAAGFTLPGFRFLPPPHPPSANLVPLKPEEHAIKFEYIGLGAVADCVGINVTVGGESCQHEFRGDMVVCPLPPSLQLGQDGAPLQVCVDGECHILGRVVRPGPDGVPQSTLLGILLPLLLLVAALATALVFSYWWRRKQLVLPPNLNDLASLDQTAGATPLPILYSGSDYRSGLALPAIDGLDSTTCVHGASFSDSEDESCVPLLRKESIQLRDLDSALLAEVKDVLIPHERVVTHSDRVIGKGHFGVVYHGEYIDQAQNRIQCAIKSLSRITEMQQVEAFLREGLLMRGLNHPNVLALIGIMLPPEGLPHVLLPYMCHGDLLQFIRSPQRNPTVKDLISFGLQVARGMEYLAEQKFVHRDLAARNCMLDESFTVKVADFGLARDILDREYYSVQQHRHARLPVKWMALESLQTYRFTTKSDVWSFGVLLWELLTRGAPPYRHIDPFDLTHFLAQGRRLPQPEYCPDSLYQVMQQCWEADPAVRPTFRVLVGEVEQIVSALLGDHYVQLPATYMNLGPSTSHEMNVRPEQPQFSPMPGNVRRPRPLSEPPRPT
IC50 [1] [µM],IC50 [2] [µM],SMILES
< 0.5,< 0.5,"C[C@@H](N)C(=O)N1CC=C(c2coc3c(O[C@H](C)c4c(Cl)ccc(F)c4Cl)c(N)ncc23)CC1 [Example 252, (2R)-2-Amino-1-[4-{6-amino-7-[(1R)-1-(2,6-dichloro-3-fluoro-phenyl)ethoxy]furo[3,2-c]pyridin-3-yl}-3,6-dihydropyridin-1(2H)-yl]propan-1-one]"
5 to 20,0.5 to 5,"CC(Oc1c(N)ncc2c(-c3cnn(C4CCNCC4)c3)coc12)c1ccc(C(N)=O)cc1 (stereo not drawn) [Example 420, 4-{1-[6-Amino-3-(1-piperidin-4-yl-1H-pyrazol-4-yl)furo[3,2-c]pyridin-7-yloxy]ethyl}benzamide]"
5 to 20,0.5 to 5,"C[C@@H](Oc1c(N)ncc2c(C(=O)NC(C)(C)C)coc12)c1c(Cl)ccc(F)c1Cl [Example 184, 6-Amino-7-[(R)-1-(2,6-dichloro-3-fluorophenyl)ethoxy]furo[3,2-c]pyridine-3-carboxylic acid tert-butylamide]"
0.5 to 5,< 0.5,"Nc1ncc2c(-c3cnn(C4CCNCC4)c3)coc2c1O[C@H](c1ccccc1)C(F)(F)F [Example 392, 3-(1-Piperidin-4-yl-1H-pyrazol-4-yl)-7-((R)-2,2,2-trifluoro-1-phenylethoxy)furo[3,2-c]pyridin-6-ylamine]"
< 0.5,< 0.5,"Cn1c(Cc2ccccc2)ncc(-c2ccc(COc3c(N)ncc4c(-c5cnn(C6CCNCC6)c5)coc34)c(F)c2)c1=O [Example 463, 5-{4-[6-Amino-3-(1-piperidin-4-yl-1H-pyrazol-4-yl)-furo[3,2-c]pyridin-7-yloxymethyl]-3-fluorophenyl}-2-benzyl-3-methyl-3H-pyrimidin-4-one]"
0.5 to 5,0.5 to 5,"C[C@@H](Oc1c(N)ncc2c(C3=CCN(C(=O)c4cnc[nH]4)CC3)coc12)c1c(Cl)ccc(F)c1Cl [Example 233, (4-{6-Amino-7-[(R)-1-(2,6-dichloro-3-fluorophenyl)ethoxy]-furo[3,2-c]pyridin-3-yl}-3,6-dihydro-2H-pyridin-1-yl)-(3H-imidazol-4-yl)-methanone]"
0.5 to 5,< 0.5,"C[C@@H](Oc1c(N)ncc2c(C3=CCN(S(=O)(=O)C4CC4)CC3)coc12)c1c(Cl)ccc(F)c1Cl [Example 48, 3-(1-Cyclopropanesulfonyl-1,2,3,6-tetrahydropyridin-4-yl)-7-[(R)-1-(2,6-dichloro-3-fluorophenyl)-ethoxy]-furo[3,2-c]pyridin-6-ylamine]"
0.5 to 5,< 0.5,"C[C@@H](Oc1c(N)ncc2c(-c3ccc(C(=O)N(C)C)cc3)coc12)c1c(Cl)ccc(F)c1Cl [Example 72, 4-{6-Amino-7-[(R)-1-(2,6-dichloro-3-fluorophenyl)ethoxy]-furo[3,2-c]pyridin-3-yl}-N,N-dimethylbenzamide]"
< 0.5,< 0.5,"CC(Oc1c(N)ncc2c(-c3cnn(C4CCNCC4)c3)coc12)c1c(Cl)cc(Br)cc1Cl (stereo not drawn) [Example 442, 7-[1-(4-Bromo-2,6-dichlorophenyl)ethoxy]-3-(1-piperidin-4-yl-1H-pyrazol-4-yl)furo[3,2-c]pyridin-6-ylamine]"
0.5 to 5,0.5 to 5,C[C@@H](Oc1c(N)ncc2c(-c3ccc(CN4CCOCC4)s3)coc12)c1c(Cl)ccc(F)c1Cl [Example 291]
< 0.5,< 0.5,"C[C@@H](Oc1c(N)ncc2c(-c3csc(CN4CCC(O)C4)c3)coc12)c1c(Cl)ccc(F)c1Cl (stereo partly drawn) [Example 307, 1-(4-{6-Amino-7-[(R)-1-(2,6-dichloro-3-fluorophenyl)-ethoxy]furo[3,2-c]pyridin-3-yl}thiophen-2-ylmethyl)pyrrolidin-3-ol]"
0.5 to 5,< 0.5,"CC(Oc1c(N)ncc2c(-c3cnn(C4CCNCC4)c3)coc12)c1c(F)cccc1F (stereo not drawn) [Example 383, 7-[1-(2,6-Difluorophenyl)ethoxy]-3-(1-piperidin-4-yl-1H-pyrazol-4-yl)furo[3,2-c]pyridin-6-ylamine]"
< 0.5,< 0.5,"C[C@@H](O)C(=O)N1CC=C(c2coc3c(O[C@H](C)c4c(Cl)ccc(F)c4Cl)c(N)ncc23)CC1 [Example 226, (R)-1-(4-{6-Amino-7-[(R)-1-(2,6-dichloro-3-fluorophenyl)ethoxy]-furo[3,2-c]pyridin-3-yl}-3,6-dihydro-2H-pyridin-1-yl)-2-hydroxypropan-1-one]"
0.5 to 5,0.5 to 5,"C[C@@H](Oc1c(N)ncc2c(C3=CCN(C(=O)N4CCCCC4)CC3)coc12)c1c(Cl)ccc(F)c1Cl [Example 32, (4-{6-Amino-7-[(R)-1-(2,6-dichloro-3-fluorophenyl)-ethoxy]-furo[3,2-c]pyridin-3-yl}-3,6-dihydro-2H-pyridin-1-yl)-piperidin-1-ylmethanone]"
< 0.5,< 0.5,"C[C@@H](Oc1c(N)ncc2c(C3=CCN(C(=O)[C@@H]4CCCNC4)CC3)coc12)c1c(Cl)ccc(F)c1Cl [Example 241, (4-{6-Amino-7-[(R)-1-(2,6-dichloro-3-fluorophenyl)ethoxy]-furo[3,2-c]pyridin-3-yl}-3,6-dihydro-2H-pyridin-1-yl)-(R)-piperidin-3-ylmethanone]"
5 to 20,0.5 to 5,"C[C@@H](Oc1c(N)ncc2c(-c3cc(C(N)=O)cs3)coc12)c1c(Cl)ccc(F)c1Cl [Example 326, 5-{6-Amino-7-[(R)-1-(2,6-dichloro-3-fluorophenyl)ethoxy]furo[3,2-c]pyridin-3-yl}thiophene-3-carboxamide]"
0.5 to 5,0.5 to 5,"C[C@@H](Oc1c(N)ncc2c(-c3cnc(N4CCOCC4)nc3)coc12)c1c(Cl)ccc(F)c1Cl [Example 283, 7-[(R)-1-(2,6-Dichloro-3-fluorophenyl)ethoxy]-3-(2-morpholin-4-ylpyrimidin-5-yl)furo[3,2-c]pyridin-6-ylamine]"
0.5 to 5,0.5 to 5,"C[C@@H](Oc1c(N)ncc2c(C3=CCN(C(=O)C4CCCCC4)CC3)coc12)c1c(Cl)ccc(F)c1Cl [Example 16, (4-{6-Amino-7-[(R)-1-(2,6-dichloro-3-fluorophenyl)-ethoxy]-furo[3,2-c]pyridin-3-yl}-3,6-dihydro-2H-pyridin-1-yl)-cyclohexylmethanone]"
0.5 to 5,< 0.5,"CC(Oc1c(N)ncc2c(C3=CCN(C(N)=O)CC3)coc12)c1c(Cl)ccc(F)c1Cl (stereo not drawn) [Example 455, 4-{6-Amino-7-[1-(2,6-dichloro-3-fluorophenyl)ethoxy]furo[3,2-c]pyridin-3-yl}-3,6-dihydro-2H-pyridine-1-carboxamide]"
< 0.5,< 0.5,"C[C@@H](Oc1c(N)ncc2c(C3=CCN(C4CN(C(N)=O)C4)CC3)coc12)c1c(Cl)ccc(F)c1Cl [Example 324, 3-(4-{6-Amino-7-[(R)-1-(2,6-dichloro-3-fluorophenyl)ethoxy]furo[3,2-c]pyridin-3-yl}-3,6-dihydro-2H-pyridin-1-yl)azetidine-1-carboxamide]"
< 0.5,< 0.5,"C[C@@H](Oc1c(N)ncc2c(C3=CCN(C(=O)CCCN(C)C)CC3)coc12)c1c(Cl)ccc(F)c1Cl [Example 20, 1-(4-{6-Amino-7-[(R)-1-(2,6-dichloro-3-fluorophenyl)-ethoxy]-furo[3,2-c]pyridin-3-yl}-3,6-dihydro-2H-pyridin-1-yl)-4-dimethylaminobutan-1-one]"
